How the values were obtained:
c-Myc = c-Myc activity (Table I, biological activities); design: key: + (less active); ++ (active); +++ (most active)
SUMO = molecular target: T1, SUMO (Homo sapiens, UniProt Q9UBT2); experiment: SUMO activity (Table I, biological activities); format: biochemical; design: key: + (less active); ++ (active); +++ (most active)
T1 sequence (Q9UBT2 1-640): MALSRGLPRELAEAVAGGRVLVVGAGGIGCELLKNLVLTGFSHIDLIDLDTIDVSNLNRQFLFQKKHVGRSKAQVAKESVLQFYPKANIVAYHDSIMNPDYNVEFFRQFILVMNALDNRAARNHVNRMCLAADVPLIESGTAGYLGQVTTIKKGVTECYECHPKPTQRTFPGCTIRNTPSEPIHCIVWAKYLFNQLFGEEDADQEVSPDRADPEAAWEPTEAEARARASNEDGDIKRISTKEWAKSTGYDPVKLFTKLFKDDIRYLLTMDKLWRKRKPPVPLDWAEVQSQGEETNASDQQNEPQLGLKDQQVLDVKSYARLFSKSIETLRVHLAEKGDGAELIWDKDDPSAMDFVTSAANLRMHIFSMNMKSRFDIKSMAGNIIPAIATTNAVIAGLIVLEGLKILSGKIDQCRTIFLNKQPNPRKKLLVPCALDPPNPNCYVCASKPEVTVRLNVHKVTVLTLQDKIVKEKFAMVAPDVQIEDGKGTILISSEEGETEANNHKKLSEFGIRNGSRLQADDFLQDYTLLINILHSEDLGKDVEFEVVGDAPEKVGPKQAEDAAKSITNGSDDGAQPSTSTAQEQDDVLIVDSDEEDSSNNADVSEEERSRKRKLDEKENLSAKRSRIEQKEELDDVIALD
T1 sequence (Q9UBE0 1-346 partner): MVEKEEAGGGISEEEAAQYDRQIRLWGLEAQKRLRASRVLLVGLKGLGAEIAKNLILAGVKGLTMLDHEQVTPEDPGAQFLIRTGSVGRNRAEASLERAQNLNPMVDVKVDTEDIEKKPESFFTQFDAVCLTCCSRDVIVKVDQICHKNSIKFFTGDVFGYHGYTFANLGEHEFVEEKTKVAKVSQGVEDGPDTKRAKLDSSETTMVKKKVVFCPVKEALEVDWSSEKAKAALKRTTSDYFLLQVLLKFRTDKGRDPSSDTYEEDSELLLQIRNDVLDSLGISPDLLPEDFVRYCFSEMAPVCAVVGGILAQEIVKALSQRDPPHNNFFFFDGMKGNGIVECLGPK

Row | Compound | c-Myc (c-Myc) | SUMO (SUMO)
1 | COC(=O)C1=C(C(=O)Nc2ccc(C)c(F)c2)C2C=CC1(C(Oc1ccccc1)c1ccc(CN3CCOCC3)cc1)O2 (centres unmarked) [Compound 496] | + | +
2 | COC(=O)C1=C(C(=O)NCCN2CCCC2)C2C=CC1(C(Cc1ccc(C(F)(F)F)cc1)Nc1ccccc1)O2 (centres unmarked) [Compound 440] | ++ | +++
3 | CCN(CC)CCNC(=O)C1=C(C(=O)OC)C2(C(Cc3ccc(C)cc3)Nc3cc(F)cc(F)c3)C=CC1O2 (centres unmarked) [Compound 430] | ++ | ++
4 | COC(=O)C1=C(C(=O)NC2CCN(C(=O)Cc3ccccc3)CC2)C2C=CC1(C(Cc1ccccc1)Nc1ccccc1)O2 (centres unmarked) [Compound 387] | + | ++
5 | COC(=O)C1=C(C(=O)NCCN(C)C)C2C=CC1(C(Cc1ccccc1)Nc1ccccc1)O2 (centres unmarked) [Compound 224] | ++ | +++
6 | COC(=O)C1=C(C(=O)NC2CCN(C)CC2)C2C=CC1(C(Cc1ccccc1)Oc1ccccc1)O2 (centres unmarked) [Compound 292] | ++ | ++
7 | COC(=O)C1=C(C(=O)NC2CCN(C)CC2)C2C=CC1(C(Cc1ccc(C(F)(F)F)cc1)Nc1ccccc1)O2 (centres unmarked) [Compound 488] | ++ | ++
8 | CCOC(=O)C1=C(C(=O)Nc2ccc(F)cc2)C2C=CC1(C(Nc1ccccc1)c1ccc(CN3CCOCC3)cc1)O2 (centres unmarked) [Compound 601] | + | ++
9 | COC(=O)C1=C(C(=O)OC)C2(C(Cc3ccccc3)Nc3cccc(Oc4ccccc4)c3)C=CC1O2 (centres unmarked) [Compound 307] | + | +++
10 | COC(=O)C1=C(C(=O)OC)C2(C(Cc3ccccc3)Nc3cccc(F)c3)C=CC1O2 (centres unmarked) [Compound 417] | + | ++
11 | COCCNC(=O)C1=C(C(=O)OC)C2(C(Cc3ccccc3)Nc3ccccc3)C=CC1O2 (centres unmarked) [Compound 403] | + | ++
12 | COC(=O)C1=C(C(=O)OC)C2(C(Cc3ccc(C)cc3)Nc3cc(F)cc(F)c3)C=CC1O2 (centres unmarked) [Compound 428] | + | ++
13 | CCN(CC)CCNC(=O)C1=C(C(=O)OC)C2(C(Cc3ccc(F)cc3)Nc3cc(F)cc(Cl)c3)C=CC1O2 (centres unmarked) [Compound 453] | + | ++
14 | CCN(CC)CCNC(=O)C1=C(C(=O)OC)C2(C(Cc3ccccc3)Oc3ccccc3)C=CC1O2 (centres unmarked) [Compound 439] | ++ | ++
15 | COC(=O)C1=C(C(=O)Nc2ccc(OCCN3CCOCC3)cc2)C2C=CC1(C(Cc1ccccc1)Nc1ccccc1)O2 (centres unmarked) [Compound 502] | + | +++
16 | COC(=O)C1=C(C(=O)NC2CCN(C(=O)NCc3cccnc3)CC2)C2C=CC1(C(Cc1ccccc1)Nc1ccccc1)O2 (centres unmarked) [Compound 384] | + | ++
17 | COC(=O)CNC(=O)C1=C(C(=O)OC)C2(C(Cc3ccccc3)Nc3cc(F)cc(F)c3)C=CC1O2 (centres unmarked) [Compound 245] | ++ | +++
18 | CCOC(=O)C1=C(C(=O)Nc2ccc(Cl)cc2)C2C=CC1(C(Nc1ccccc1)c1ccc(CN3CCOCC3)cc1)O2 (centres unmarked) [Compound 606] | + | ++
19 | CCOC(=O)C1=C(C(=O)Nc2ccc(C)c(F)c2)C2C=CC1(C(Nc1ccc(OC)cc1)c1ccc(CN3CCOCC3)cc1)O2 (centres unmarked) [Compound 621] | + | +
20 | COC(=O)C1=C(C(=O)NC2CCN(C(=O)c3ccc(F)cc3)CC2)C2CCC1(C(Cc1ccccc1)Nc1ccccc1)O2 (centres unmarked) [Compound 370] | + | +
21 | COC(=O)C1=C(C(=O)NCCN2CCOCC2)C2C=CC1(C(Cc1ccccc1)Oc1ccccc1)O2 (centres unmarked) [Compound 326] | ++ | ++
22 | C=CCC(Nc1ccccc1)C12C=CC(O1)C(C(=O)NCCN(CC)CC)=C2C(=O)OC (centres unmarked) [Compound 416] | + | ++

Row | Compound | c-Myc (c-Myc) | SUMO (SUMO)
23 | COC(=O)C1=C(C(=O)NCCN2CCCC2)C2C=CC1(C(Cc1ccc(Cl)cc1)Nc1cc(F)cc(F)c1)O2 (centres unmarked) [Compound 441] | ++ | +++
24 | COC(=O)C1=C(C(=O)NC2CCN(Cc3ccccc3)CC2)C2CCC1(C(Cc1ccccc1)Nc1ccccc1)O2 (centres unmarked) [Compound 369] | + | +
25 | COC(=O)C1=C(C(=O)NCCN(C)C)C2(C(Cc3ccccc3)Nc3cc(F)cc(F)c3)C=CC1O2 (centres unmarked) [Compound 401] | ++ | ++
26 | COC(=O)C1=C(C(=O)Nc2ccc(OCCN3CCCC3)cc2)C2C=CC1(C(Cc1ccccc1)Nc1ccccc1)O2 (centres unmarked) [Compound 505] | + | ++
27 | CCN(CC)CCNC(=O)C1=C(C(=O)OC)C2(C(Cc3ccccc3)Nc3cccc(F)c3)C=CC1O2 (centres unmarked) [Compound 421] | ++ | ++
28 | COC(=O)C1=C(C(=O)NNc2ccc(F)c(F)c2)C2(C(Cc3ccccc3)Nc3cc(F)cc(F)c3)C=CC1O2 (centres unmarked) [Compound 315] | + | ++
29 | COC(=O)C1=C(C(=O)NC2CCNCC2)C2C=CC1(C(Cc1ccccc1)Nc1ccccc1)O2 (centres unmarked) [Compound 225] | ++ | +++
30 | COC(=O)C1=C(C(=O)NCc2ccccn2)C2C=CC1(C(Cc1ccccc1)Nc1ccccc1)O2 (centres unmarked) [Compound 396] | ++ | +
31 | COC(=O)C1=C(C(=O)Nc2ccc(C)nc2)C2C=CC1(C(Cc1ccccc1)Oc1ccccc1)O2 (centres unmarked) [Compound 333] | + | +
32 | CCOC(=O)C1=C(C(=O)Nc2ccccc2Oc2ccccc2)C2C=CC1(C(Nc1ccccc1)c1ccc(CN3CCOCC3)cc1)O2 (centres unmarked) [Compound 608] | + | +
33 | CCOc1cccc(NC(Cc2ccccc2)C23C=CC(O2)C(C(=O)Nc2ccncc2)=C3C(=O)OC)c1 (centres unmarked) [Compound 253] | + | ++
34 | COC(=O)C1=C(C(=O)Nc2cccc(F)c2C)C2C=CC1(C(Cc1ccccc1)Nc1ccccc1)O2 (centres unmarked) [Compound 359] | + | ++
35 | COC(=O)C1=C(C(=O)OC)C2(C(Nc3ccccc3)C3CCC3)C=CC1O2 (centres unmarked) [Compound 184] | + | ++
36 | COC(=O)C1=C(C(=O)O)C2(C(Cc3ccccc3)Nc3cc(F)cc(F)c3)C=CC1O2 (centres unmarked) [Compound 310] | + | +
37 | COC(=O)C1=C(C(N)=O)C2C=CC1(C(Cc1ccccc1)Nc1cc(F)cc(Cl)c1)O2 (centres unmarked) [Compound 217] | ++ | +
38 | COC(=O)C1=C(C(=O)NCCN(C)C)C2(C)C=CC1(C(Cc1ccccc1)Nc1ccccc1)O2 (centres unmarked) [Compound 594] | + | ++
39 | CCOC(=O)C1=CC2OC1(C(Nc1ccccc1)c1ccccc1)c1ccccc12 (centres unmarked) [Compound 625] | + | +
40 | CCOC(=O)C1=C(C(=O)Nc2ccc(OC)cc2OC)C2C=CC1(C(Nc1ccccc1)c1ccc(CN3CCOCC3)cc1)O2 (centres unmarked) [Compound 610] | + | +
41 | COC(=O)C1=C(C(=O)NCCN2CCCC2)C2C=CC1(C(Cc1ccccc1)Nc1cc(F)cc(Cl)c1)O2 (centres unmarked) [Compound 444] | ++ | +++
42 | COC(=O)C1=C(C(=O)NC2CCN(C(=O)NCC3CCCO3)CC2)C2C=CC1(C(Cc1ccccc1)Nc1ccccc1)O2 (centres unmarked) [Compound 382] | + | ++
43 | COC(=O)C1=C(C(=O)NC2CCN(C(=O)c3ccc(Cl)s3)CC2)C2C=CC1(C(Cc1ccccc1)Nc1ccccc1)O2 (centres unmarked) [Compound 392] | + | ++

From patent publication US11578079B2, “SUMO inhibitor compounds and uses thereof” (CITY OF HOPE, priority 2018, dated 2023)
